The values that follow come from patent publication US20220089578A1, “COMPOUNDS AS GLP-1R AGONISTS” (Terns Pharmaceuticals, Inc., priority 2020, published 2022).

Sequence of human GLP-1R (P43220 24-463): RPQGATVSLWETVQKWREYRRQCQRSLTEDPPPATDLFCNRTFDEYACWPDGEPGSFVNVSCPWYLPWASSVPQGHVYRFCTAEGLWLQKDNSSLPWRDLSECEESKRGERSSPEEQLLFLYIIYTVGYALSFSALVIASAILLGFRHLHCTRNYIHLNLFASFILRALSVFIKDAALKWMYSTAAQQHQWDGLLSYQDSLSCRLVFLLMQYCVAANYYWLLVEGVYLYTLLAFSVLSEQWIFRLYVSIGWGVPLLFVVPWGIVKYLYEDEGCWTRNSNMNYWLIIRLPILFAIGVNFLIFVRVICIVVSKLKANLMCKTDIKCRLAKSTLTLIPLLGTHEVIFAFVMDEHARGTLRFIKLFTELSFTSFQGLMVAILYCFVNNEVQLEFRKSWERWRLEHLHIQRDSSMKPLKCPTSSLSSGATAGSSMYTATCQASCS

The first experiment concerns the target human GLP-1R (Homo sapiens, UniProt P43220). In words: GLP-1R Cell Assay 1: cAMP Hunter CHO-K1 GLP1R Gs cell line, HitHunter cAMP assay. As to conditions: Table 2; cAMP Hunter CHO-K1 GLP1R Gs cells; percent activity normalized to Exendin-4. Type of experiment: cell-based. As for the experimental part:
GLP-1R mediated agonist activity was determined using the cAMP Hunter CHO-K1 GLP1R Gs cell line (DiscoverX, cat# 95-0062C2), a stable CHO-K1 derived cell lines overexpressing naturally Gs coupled wild-type human GLP-1R (accession number: NM_002062.3). GLP-1R agonism in this cell line was detected by measuring cellular cAMP levels using the HitHunter cAMP assay kit (cat# 90-0075SM2), a homogenous, gain-of-signal competitive immune assay based on Enzyme Fragment Complementation (EFC) technology. In this system cellular cAMP competes with exogenous labeled cAMP (ED-cAMP) for binding to an anti-cAMP antibody. […] The luminescent signal is directly proportional to the amount of cellular cAMP.
For compound testing, cells were seeded in a total volume of 20 μL in white walled, 384-well microplates and incubated at 37° C. prior to compound testing. Prior to compound addition, cell culture media was removed by aspiration and replaced with 15 pt reagent buffer (2:1 HBSS/10 mM HEPES: cAMP XS+Ab reagent). Compounds were dissolved in DSMO and serially diluted (3-fold) prior to final dilution to 4X in assay buffer. Samples (5 μL) were added to cells and incubated at 37° C. for […] prior to 1 hour incubation with 20 pt cAMP XS+ED/CL lysis reagent and 3 hour incubation with 20 μL cAMP XS+EA reagent at room temperature. Microplates were read on a PerkinElmer Envision instrument. Compound activity was analyzed using CBIS data analysis suite (ChemInnovation). Percent activity was calculated based on duplicate assay runs and normalized to the positive control Exendin-4, a GLP-1R peptide agonist, using the following formula: […]
The effective compound concentration resulting in 50% response (EC50) was determined by non-linear regression analysis of dose-response curves.
In general terms: Changes in cAMP serve as a functional read-out for many G protein-coupled receptors.
As usually defined, the EC50 is the midpoint of the concentration-response curve. `O=C(O)c1ccc2nc(CN3CCN(c4cccc(OC5(c6ccccc6)COC5)n4)CC3)n(C[C@@H]3CCO3)c2c1` [Compound 45, (S)-1-(oxetan-2-ylmethyl)-2-((4-(6-((3-phenyloxetan-3-yl)oxy)pyridin-2-yl)piperazin-1-yl)methyl)-1H-benzo[d]imidazole-6-carboxylic acid]: the EC50 turned out to be 21.7 nM.

Regarding `N#Cc1ccc(COc2cccc(C34CCN(Cc5nc6ccc(C(=O)O)cc6n5C[C@@H]5CCO5)CC3C4)n2)c(F)c1` (stereo partly drawn) [Compound 9, 2-((6-(6-((4-cyano-2-fluorobenzyl)oxy)pyridin-2-yl)-3-azabicyclo[4.1.0]heptan-3-yl)methyl)-1-((S)-oxetan-2-ylmethyl)-1H-benzo[d]imidazole-6-carboxylic acid], the midpoint of the response, the EC50, lay at 0.476 nM.

As for `O=C(O)c1ccc2nc(CN3CCC(n4ccc(OCc5ccccc5)n4)CC3)n(C[C@@H]3CCO3)c2c1` [Compound 22, (S)-2-((4-(3-(benzyloxy)-1H-pyrazol-1-yl)piperidin-1-yl)methyl)-1-(oxetan-2-ylmethyl)-1H-benzo[d]imidazole-6-carboxylic acid], the EC50 was 3740 nM.

`CCn1cncc1Cn1c(CN2CCC(c3cccc(OCc4nc5ccccc5s4)n3)CC2)nc2ccc(C(=O)O)cc21` [Compound 125, 2-((4-(6-(benzo[d]thiazol-2-ylmethoxy)pyridin-2-yl)piperidin-1-yl)methyl)-1-((1-ethyl-1H-imidazol-5-yl)methyl)-1H-benzo[d]imidazole-6-carboxylic acid] displayed an EC50 of 0.0329 nM.

Regarding `CCn1cncc1Cn1c(CN2CC[C@@]3(c4cccc(OCc5ccc(C#N)cc5F)n4)C[C@H]3C2)nc2ccc(C(=O)O)cc21` (single isomer, unassigned) [Compound 121-P1], a half-maximal effect (EC50) was put at 0.0329 nM.

`N#Cc1ccc2c(c1)CCN(c1cccc(N3CCN(Cc4nc5ccc(C(=O)O)cc5n4C[C@@H]4CCO4)CC3)n1)CC2` [Compound 2, (S)-2-((4-(6-(7-cyano-4,5-dihydro-1H-benzo[d]azepin-3(2H)-yl)pyridin-2-yl)piperazin-1-yl)methyl)-1-(oxetan-2-ylmethyl)-1H-benzo[d]imidazole-6-carboxylic acid] returned an EC50 greater than 500 nM.

`N#Cc1ccc2c(c1)CCCN(c1cccc(N3CCN(Cc4nc5ccc(C(=O)O)cc5n4C[C@@H]4CCO4)CC3)n1)C2` [Compound 74, (S)-2-((4-(6-(7-cyano-1,3,4,5-tetrahydro-2H-benzo[c]azepin-2-yl)pyridin-2-yl)piperazin-1-yl)methyl)-1-(oxetan-2-ylmethyl)-1H-benzo[d]imidazole-6-carboxylic acid] yielded a concentration for a half-maximal effect (EC50) of 141 nM.

In turn, `O=C(O)c1ccc2nc(CN3CCN(c4cccc(OC5(c6ccccc6)CCC5)n4)CC3)n(C[C@@H]3CCO3)c2c1` [Compound 51, (S)-1-(oxetan-2-ylmethyl)-2-((4-(6-(1-phenylcyclobutoxy)pyridin-2-yl)piperazin-1-yl)methyl)-1H-benzo[d]imidazole-6-carboxylic acid] displayed an EC50 of 348 nM.

Take `O=C(O)c1ccc2nc(CN3CCC(O)(c4cccc(OCc5ccccc5)n4)CC3)n(C[C@@H]3CCO3)c2c1` [Compound 18, (S)-2-((4-(6-(benzyloxy)pyridin-2-yl)-4-hydroxypiperidin-1-yl)methyl)-1-(oxetan-2-ylmethyl)-1H-benzo[d]imidazole-6-carboxylic acid]: the EC50 is greater than 500 nM.

Molecule `N#Cc1ccc2c(c1)CCN(c1cccc(N3CCN(Cc4nc5ccc(C(=O)O)cc5n4C[C@@H]4CCO4)CC3)n1)C2` [Compound 60, (S)-2-((4-(6-(6-cyano-3,4-dihydroisoquinolin-2(1H)-yl)pyridin-2-yl)piperazin-1-yl)methyl)-1-(oxetan-2-ylmethyl)-1H-benzo[d]imidazole-6-carboxylic acid] returned an EC50 of 8.18 nM.

As for `C[C@@H]1COC[C@H](N2CCC(c3cccc(OCc4ccc(C#N)cc4F)n3)CC2)c2nc3ccc(C(=O)O)cc3n21` [Compound 95, (1R,5R)-5-(4-(6-((4-cyano-2-fluorobenzyl)oxy)pyridin-2-yl)piperidin-1-yl)-1-methyl-1,2,4,5-tetrahydrobenzo[4,5]imidazo[1,2-d][1,4]oxazepine-9-carboxylic acid], the EC50 is 46.6 nM.

Regarding `N#Cc1ccc(COc2cccc(C3CCN([C@@H]4CCCCn5c4nc4ccc(C(=O)O)cc45)CC3)n2)c(F)c1` [Compound 90, (R)-6-(4-(6-((4-cyano-2-fluorobenzyl)oxy)pyridin-2-yl)piperidin-1-yl)-7,8,9,10-tetrahydro-6H-benzo[4,5]imidazo[1,2-a]azepine-2-carboxylic acid], the EC50 is greater than 500 nM.

The molecule `O=C(O)c1ccc2nc(CN3CCN(c4cccc(OCc5cccnc5)n4)CC3)n(C[C@@H]3CCO3)c2c1` [Compound 53, (S)-1-(oxetan-2-ylmethyl)-2-((4-(6-(pyridin-3-ylmethoxy)pyridin-2-yl)piperazin-1-yl)methyl)-1H-benzo[d]imidazole-6-carboxylic acid] displayed an EC50 of 7.7 nM.

Take `CCn1cncc1Cn1c(CN2CCC(c3cccc(OCc4ccc(C#N)cc4F)n3)CC2)nc2ccc(C(=O)O)cc21` [Compound 142, 2-((4-(6-((4-cyano-2-fluorobenzyl)oxy)pyridin-2-yl)piperidin-1-yl)methyl)-1-((1-ethyl-1H-imidazol-5-yl)methyl)-1H-benzo[d]imidazole-6-carboxylic acid]: a half-maximal effect (EC50) was put at 0.00833 nM.

With `O=C(O)c1ccc2nc(CN3CCN(c4cccc(OCc5ccccn5)n4)CC3)n(C[C@@H]3CCO3)c2c1` [Compound 40, (S)-1-(oxetan-2-ylmethyl)-2-((4-(6-(pyridin-2-ylmethoxy)pyridin-2-yl)piperazin-1-yl)methyl)-1H-benzo[d]imidazole-6-carboxylic acid], the response was half-maximal at 3.28 nM (EC50).

Regarding `N#Cc1ccc(COc2cccc(C3CCN([C@H]4COCCn5c4nc4ccc(C(=O)O)cc45)CC3)n2)c(F)c1` (single isomer, unassigned) [Compound 7-P1], the EC50 amounted to 5.19 nM.

The experiment is the same for the next values; noted with them: Table 3; cAMP Hunter CHO-K1 GLP1R Gs cells; percent activity normalized to Exendin-4.
Molecule `N#Cc1ccc2c(c1)CCC[C@H]2Oc1cccc(C2CCN(Cc3nc4ccc(C(=O)O)cc4n3C[C@@H]3CCO3)CC2)n1` (single isomer, unassigned) [Compound 146-P1] had an EC50 greater than 500 nM.

`N#Cc1ccc(CN2CCCc3ccc(C4CCN(Cc5nc6ccc(C(=O)O)cc6n5C[C@@H]5CCO5)CC4)nc32)c(F)c1` [Compound 143, (S)-2-((4-(8-(4-cyano-2-fluorobenzyl)-5,6,7,8-tetrahydro-1,8-naphthyridin-2-yl)piperidin-1-yl)methyl)-1-(oxetan-2-ylmethyl)-1H-benzo[d]imidazole-6-carboxylic acid] came in with an EC50 greater than 500 nM.

In turn, `N#Cc1ccc([C@@H]2CCc3c(cccc3N3CCN(Cc4nc5ccc(C(=O)O)cc5n4C[C@@H]4CCO4)CC3)O2)c(F)c1` (single isomer, unassigned) [Compound 151-P2] registered an EC50 greater than 500 nM.

`O=C(O)c1ccc2nc(CN3CCN(c4ccc5c(n4)N(Cc4ccccc4)C(=O)CC5)CC3)n(C[C@@H]3CCO3)c2c1` [Compound 158, (S)-2-((4-(8-benzyl-7-oxo-5,6,7,8-tetrahydro-1,8-naphthyridin-2-yl)piperazin-1-yl)methyl)-1-(oxetan-2-ylmethyl)-1H-benzo[d]imidazole-6-carboxylic acid] gave an EC50 greater than 500 nM.

`O=C(O)c1ccc2nc(CN3CCN(c4ccc5cc(-c6ccccc6)oc5n4)CC3)n(C[C@@H]3CCO3)c2c1` [Compound 160, (S)-1-(oxetan-2-ylmethyl)-2-((4-(2-phenylfuro[2,3-b]pyridin-6-yl)piperazin-1-yl)methyl)-1H-benzo[d]imidazole-6-carboxylic acid]: the EC50 is greater than 500 nM.

In turn, `CCn1cncc1Cn1c(CN2CC[C@]3(c4cccc(N5CCc6cc(C#N)cc(F)c6C5)n4)C[C@@H]3C2)nc2ccc(C(=O)O)cc21` [Compound 184-P2, 2-(((1S,6R)-6-(6-(6-cyano-8-fluoro-3,4-dihydroisoquinolin-2(1H)-yl)pyridin-2-yl)-3-azabicyclo[3.1.0]heptan-3-yl)methyl)-1-((1-ethyl-1H-imidazol-5-yl)methyl)-1H-benzo[d]imidazole-6-carboxylic acid] yielded an EC50 of 0.414 nM.

On to `N#Cc1ccc(-n2ccc3c(C4CCN(Cc5nc6ccc(C(=O)O)cc6n5C[C@@H]5CCO5)CC4)cccc3c2=O)c(F)c1` [Compound 147, (S)-2-((4-(2-(4-cyano-2-fluorophenyl)-1-oxo-1,2-dihydroisoquinolin-5-yl)piperidin-1-yl)methyl)-1-(oxetan-2-ylmethyl)-1H-benzo[d]imidazole-6-carboxylic acid], for which the EC50 was greater than 500 nM.

Consider `CCn1cncc1Cn1c(CN2CC[C@@]3(c4cccc(N5CCc6cc(C#N)cc(F)c6C5)n4)C[C@H]3C2)nc2ccc(C(=O)O)cc21` [Compound 184-P1, 2-(((1R,6S)-6-(6-(6-cyano-8-fluoro-3,4-dihydroisoquinolin-2(1H)-yl)pyridin-2-yl)-3-azabicyclo[4.1.0]heptan-3-yl)methyl)-1-((1-ethyl-1H-imidazol-5-yl)methyl)-1H-benzo[d]imidazole-6-carboxylic acid], for which the EC50 is 0.266 nM.
